Laboratory results reported in ChEMBL document CHEMBL4406890, “Discovery of a novel bicyclic compound, DS54360155, as an orally potent analgesic without mu-opioid receptor agonist activity” (Bioorg Med Chem Lett, 2019).

System: Mus musculus
Test: Analgesic activity in ddY mouse assessed as reduction in total time spent in paw licking and biting during initial phase at 30 mg/kg, po pretreated for 30 mins followed by formalin challenge and measured for 15 mins post formalin challenge by formalin test relative to control
Format: functional
Settings: not given

Row | Compound | inhibition in vivo at 30 mg/kg
1 | CN1C(=O)c2[nH]c3ccccc3c2CN2CC[C@H]1C2.O=S(=O)(O)O | 83%
2 | C/C=C1/CN2CC[C@H]1C(=O)c1[nH]c3ccccc3c1C2.O=S(=O)(O)O | 43%
3 | CN1C(=O)c2[nH]c3ccccc3c2CN2CC[C@@H]1C2.O=S(=O)(O)O | 30%

System: not listed separately
Test: Half-life in ddY mouse at 10 mg/kg, po measured after 3 mins by LC-MS/MS analysis
Format: ADME, organism-based
Settings: in vivo

Row | Compound | half-life
4 | CN1C(=O)c2[nH]c3ccccc3c2CN2CC[C@H]1C2.O=S(=O)(O)O | 2.27 h
5 | CN1C(=O)c2[nH]c3ccccc3c2CN2CCC[C@H]1C2 | 2.18 h
6 | CN1C(=O)c2[nH]c3ccccc3c2CN2CCC1C2.O=S(=O)(O)O (racemic) | 1.69 h
7 | CN1C(=O)c2[nH]c3ccccc3c2CN2CC[C@@H]1C2.O=S(=O)(O)O | 2.52 h

Molecular target: T1, Mu-type opioid receptor (Homo sapiens, UniProt P35372)
T1 sequence (P35372 whole entry): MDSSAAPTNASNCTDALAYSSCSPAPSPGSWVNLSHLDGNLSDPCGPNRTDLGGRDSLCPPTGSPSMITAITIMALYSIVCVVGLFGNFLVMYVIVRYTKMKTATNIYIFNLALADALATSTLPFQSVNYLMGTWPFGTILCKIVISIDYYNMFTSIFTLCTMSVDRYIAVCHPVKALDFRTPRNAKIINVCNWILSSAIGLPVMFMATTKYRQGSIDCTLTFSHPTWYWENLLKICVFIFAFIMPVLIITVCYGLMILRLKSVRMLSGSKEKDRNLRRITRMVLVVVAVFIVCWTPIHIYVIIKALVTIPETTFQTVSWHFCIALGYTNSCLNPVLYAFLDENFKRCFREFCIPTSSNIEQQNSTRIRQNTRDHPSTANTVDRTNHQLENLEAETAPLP
Test: Displacement of [3H]-diprenorphin from human mu opioid receptor incubated for 1 hr
Format: ADME
Settings: not given

Row | Compound | IC50
8 | CN1C(=O)c2[nH]c3ccccc3c2CN2CC[C@H]1C2.O=S(=O)(O)O | > 100 µM
9 | CN1C(=O)c2[nH]c3ccccc3c2CN2CC[C@@H]1C2.O=S(=O)(O)O | > 100 µM

Molecular target: T1, Mu-type opioid receptor
Test: Agonist activity at human mu opioid receptor expressed in CHOK1 cells assessed as inhibition of forskolin-induced cAMP production by FRET assay relative to DAMGO
Format: cell-based
Settings: not given

Row | Compound | Emax
10 | CN1C(=O)c2[nH]c3ccccc3c2CN2CC[C@H]1C2.O=S(=O)(O)O | 19%
11 | CN1C(=O)c2[nH]c3ccccc3c2CN2CC[C@@H]1C2.O=S(=O)(O)O | 18%

System: not listed separately
Test: Volume of distribution in ddY mouse at 1 mg/kg, iv measured after 3 mins by LC-MS/MS analysis
Format: ADME, organism-based
Settings: in vivo

Row | Compound | Vd
12 | CN1C(=O)c2[nH]c3ccccc3c2CN2CC[C@H]1C2.O=S(=O)(O)O | 1.72 L/kg
13 | CN1C(=O)c2[nH]c3ccccc3c2CN2CC[C@@H]1C2.O=S(=O)(O)O | 1.14 L/kg

Molecular target: hERG (KCNH2) (Homo sapiens, UniProt Q12809)
Sequence (Q12809 whole entry): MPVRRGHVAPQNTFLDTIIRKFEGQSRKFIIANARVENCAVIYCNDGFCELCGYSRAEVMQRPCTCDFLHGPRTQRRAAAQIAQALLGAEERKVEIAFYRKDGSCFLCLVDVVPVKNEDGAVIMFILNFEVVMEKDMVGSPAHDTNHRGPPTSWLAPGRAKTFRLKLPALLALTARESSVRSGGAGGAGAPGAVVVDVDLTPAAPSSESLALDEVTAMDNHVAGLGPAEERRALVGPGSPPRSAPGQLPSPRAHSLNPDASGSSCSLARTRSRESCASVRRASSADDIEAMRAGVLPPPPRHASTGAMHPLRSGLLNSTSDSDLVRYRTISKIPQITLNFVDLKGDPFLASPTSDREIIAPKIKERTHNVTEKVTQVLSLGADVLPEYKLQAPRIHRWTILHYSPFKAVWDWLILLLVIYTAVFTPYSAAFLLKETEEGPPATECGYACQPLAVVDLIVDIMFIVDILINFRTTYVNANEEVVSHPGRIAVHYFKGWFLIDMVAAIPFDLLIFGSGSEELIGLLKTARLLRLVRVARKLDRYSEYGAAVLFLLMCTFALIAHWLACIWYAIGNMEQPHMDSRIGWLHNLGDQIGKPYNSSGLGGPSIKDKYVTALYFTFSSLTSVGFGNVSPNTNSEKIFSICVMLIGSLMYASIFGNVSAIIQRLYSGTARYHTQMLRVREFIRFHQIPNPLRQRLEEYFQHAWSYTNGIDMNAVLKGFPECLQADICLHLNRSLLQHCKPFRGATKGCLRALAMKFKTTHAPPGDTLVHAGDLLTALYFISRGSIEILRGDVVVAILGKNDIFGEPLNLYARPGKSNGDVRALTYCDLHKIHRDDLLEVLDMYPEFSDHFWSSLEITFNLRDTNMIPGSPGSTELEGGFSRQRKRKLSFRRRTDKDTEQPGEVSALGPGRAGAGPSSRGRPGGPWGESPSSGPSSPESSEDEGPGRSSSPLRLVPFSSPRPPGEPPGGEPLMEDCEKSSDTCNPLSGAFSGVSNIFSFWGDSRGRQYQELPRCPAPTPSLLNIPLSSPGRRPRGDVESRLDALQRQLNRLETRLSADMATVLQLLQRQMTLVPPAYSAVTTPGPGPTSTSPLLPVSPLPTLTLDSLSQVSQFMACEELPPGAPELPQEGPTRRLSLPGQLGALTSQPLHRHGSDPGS
Test: Inhibition of human ERG at 10 uM relative to control
Settings: not given

Row | Compound | inhibition at 10 µM
14 | O=C1c2[nH]c3ccccc3c2CN2CCC(C2)N1C1CC1 (racemic) | 19%
15 | CN1C(=O)c2[nH]c3ccccc3c2CN2CC[C@H]1C2.O=S(=O)(O)O | 14%
16 | CC12CCCN(CC1)Cc1c([nH]c3ccccc13)C2=O (racemic) | 88%
17 | CCCN1C(=O)c2[nH]c3ccccc3c2CN2CCC1C2 (racemic) | 43%
18 | CCN1C(=O)c2[nH]c3ccccc3c2CN2CCC1C2 (racemic) | 14%
19 | C/C=C1/CN2CC[C@H]1C(=O)c1[nH]c3ccccc3c1C2.O=S(=O)(O)O | 63%
20 | CN1C(=O)c2[nH]c3ccccc3c2CN2CCC[C@H]1C2 | 38%
21 | CN1C(=O)c2[nH]c3ccccc3c2CN2CCC1C2.O=S(=O)(O)O (racemic) | 26%
22 | O=C1c2[nH]c3ccccc3c2CN2CCC3(CCCN13)C2 (racemic) | 13%
23 | CCN1CCCC(=O)c2[nH]c3ccccc3c2C1 | 73%
24 | CN1C(=O)c2[nH]c3ccccc3c2CN2CC[C@@H]1C2.O=S(=O)(O)O | 23%
25 | CN1CCCC(=O)c2[nH]c3ccccc3c2C1 | 50%
26 | CN1C(=O)c2[nH]c3ccccc3c2CN2CCC1(C)C2 (racemic) | 36%

System: not listed separately
Test: Cmax in ddY mouse at 10 mg/kg, po measured after 3 mins by LC-MS/MS analysis
Format: ADME, organism-based
Set-up: dose 10 mg/kg, route oral
Settings: in vivo

Row | Compound | Cmax
27 | CN1C(=O)c2[nH]c3ccccc3c2CN2CC[C@H]1C2.O=S(=O)(O)O | 2150 nM
28 | CN1C(=O)c2[nH]c3ccccc3c2CN2CCC[C@H]1C2 | 720 nM
29 | CN1C(=O)c2[nH]c3ccccc3c2CN2CCC1C2.O=S(=O)(O)O (racemic) | 1460 nM
30 | CN1C(=O)c2[nH]c3ccccc3c2CN2CC[C@@H]1C2.O=S(=O)(O)O | 2990 nM

System: Mus musculus
Test: Analgesic activity in ddY mouse model of acetic acid-induced writhing assessed as inhibition of writhing numbers at 10 mg/kg, po pretreated for 30 mins followed by acetic acid challenge and measured for 25 mins relative to control
Format: functional
Settings: not given

Row | Compound | inhibition in vivo at 10 mg/kg
31 | CN1C(=O)c2[nH]c3ccccc3c2CN2CC[C@H]1C2.O=S(=O)(O)O | 23%

System: Mus musculus
Test: Analgesic activity in ddY mouse model of acetic acid-induced writhing assessed as inhibition of writhing numbers at 30 mg/kg, po pretreated for 30 mins followed by acetic acid challenge and measured for 25 mins relative to control
Format: functional
Settings: not given

Row | Compound | inhibition in vivo at 30 mg/kg
32 | O=C1c2[nH]c3ccccc3c2CN2CCC(C2)N1C1CC1 (racemic) | 55%
33 | CN1C(=O)c2[nH]c3ccccc3c2CN2CCC[C@@H]1C2 | 65%
34 | CN1C(=O)c2[nH]c3ccccc3c2CN2CC[C@H]1C2.O=S(=O)(O)O | 95%
35 | CC12CCCN(CC1)Cc1c([nH]c3ccccc13)C2=O (racemic) | 21%
36 | CCCN1C(=O)c2[nH]c3ccccc3c2CN2CCC1C2 (racemic) | 44%
37 | CCN1C(=O)c2[nH]c3ccccc3c2CN2CCC1C2 (racemic) | 43%
38 | C/C=C1/CN2CC[C@H]1C(=O)c1[nH]c3ccccc3c1C2.O=S(=O)(O)O | 49%
39 | CN1C(=O)c2[nH]c3ccccc3c2CN2CCC[C@H]1C2 | 77%
40 | CN1C(=O)c2[nH]c3ccccc3c2CN2CCC1C2.O=S(=O)(O)O (racemic) | 83%
41 | O=C1c2[nH]c3ccccc3c2CN2CCC3(CCCN13)C2 (racemic) | 47%
42 | CCN1CCCC(=O)c2[nH]c3ccccc3c2C1 | 36%
43 | CN1C(=O)c2[nH]c3ccccc3c2CN2CC[C@@H]1C2.O=S(=O)(O)O | 49%
44 | CN1CCCC(=O)c2[nH]c3ccccc3c2C1 | 31%
45 | CN1C(=O)c2[nH]c3ccccc3c2CN2CCC1(C)C2 (racemic) | 37%

System: not listed separately
Test: AUC in ddY mouse at 10 mg/kg, po measured after 3 mins by LC-MS/MS analysis
Format: ADME, organism-based
Set-up: time < 0.05 hr, dose 10 mg/kg, route oral
Settings: in vivo

Row | Compound | AUC at 0.05 h
46 | CN1C(=O)c2[nH]c3ccccc3c2CN2CC[C@H]1C2.O=S(=O)(O)O | 5.8 µM·h
47 | CN1C(=O)c2[nH]c3ccccc3c2CN2CCC[C@H]1C2 | 1.59 µM·h
48 | CN1C(=O)c2[nH]c3ccccc3c2CN2CCC1C2.O=S(=O)(O)O (racemic) | 3.29 µM·h
49 | CN1C(=O)c2[nH]c3ccccc3c2CN2CC[C@@H]1C2.O=S(=O)(O)O | 12.2 µM·h

Molecular target: T1, Mu-type opioid receptor
Test: Agonist activity at human mu opioid receptor expressed in CHOK1 cells assessed as inhibition of forskolin-induced cAMP production by FRET assay
Format: cell-based
Settings: not given

Row | Compound | EC50
50 | CN1C(=O)c2[nH]c3ccccc3c2CN2CC[C@H]1C2.O=S(=O)(O)O | > 100 µM
51 | C/C=C1/CN2CC[C@H]1C(=O)c1[nH]c3ccccc3c1C2.O=S(=O)(O)O | > 100 µM
52 | CN1C(=O)c2[nH]c3ccccc3c2CN2CC[C@@H]1C2.O=S(=O)(O)O | > 100 µM

System: Mus musculus
Test: Analgesic activity in oral dosed ddY mouse model of acetic acid-induced writhing pretreated for 30 mins followed by acetic acid challenge and measured for 25 mins
Format: functional
Settings: not given

Row | Compound | ED50
53 | CN1C(=O)c2[nH]c3ccccc3c2CN2CC[C@H]1C2.O=S(=O)(O)O | 12 mg/kg
54 | C/C=C1/CN2CC[C@H]1C(=O)c1[nH]c3ccccc3c1C2.O=S(=O)(O)O | 32 mg/kg
55 | CN1C(=O)c2[nH]c3ccccc3c2CN2CCC[C@H]1C2 | 23 mg/kg
56 | CN1C(=O)c2[nH]c3ccccc3c2CN2CCC1C2.O=S(=O)(O)O (racemic) | 21 mg/kg
57 | CN1C(=O)c2[nH]c3ccccc3c2CN2CC[C@@H]1C2.O=S(=O)(O)O | 27 mg/kg

System: Mus musculus
Test: Analgesic activity in ddY mouse model of acetic acid-induced writhing assessed as inhibition of writhing numbers at 3 mg/kg, po pretreated for 30 mins followed by acetic acid challenge and measured for 25 mins relative to control
Format: functional
Settings: not given

Row | Compound | inhibition in vivo at 3 mg/kg
58 | CN1C(=O)c2[nH]c3ccccc3c2CN2CC[C@H]1C2.O=S(=O)(O)O | 19%

System: not listed separately
Test: 1-Octanol/phosphate buffered-saline distribution coefficient, logD of compound at pH 7.4
Format: physicochemical
Settings: not given

Row | Compound | logD
59 | O=C1c2[nH]c3ccccc3c2CN2CCC(C2)N1C1CC1 (racemic) | 1.1
60 | CN1C(=O)c2[nH]c3ccccc3c2CN2CCC[C@@H]1C2 | 0.9
61 | CN1C(=O)c2[nH]c3ccccc3c2CN2CC[C@H]1C2.O=S(=O)(O)O | 0.7
62 | CC12CCCN(CC1)Cc1c([nH]c3ccccc13)C2=O (racemic) | 1.5
63 | CCCN1C(=O)c2[nH]c3ccccc3c2CN2CCC1C2 (racemic) | 1.6
64 | CCN1C(=O)c2[nH]c3ccccc3c2CN2CCC1C2 (racemic) | 1.1
65 | CN1C(=O)c2[nH]c3ccccc3c2CN2CCC[C@H]1C2 | 1
66 | CN1C(=O)c2[nH]c3ccccc3c2CN2CCC1C2.O=S(=O)(O)O (racemic) | 0.7
67 | O=C1c2[nH]c3ccccc3c2CN2CCC3(CCCN13)C2 (racemic) | 1.2
68 | CCN1CCCC(=O)c2[nH]c3ccccc3c2C1 | 1.3
69 | CN1C(=O)c2[nH]c3ccccc3c2CN2CC[C@@H]1C2.O=S(=O)(O)O | 0.7
70 | CN1CCCC(=O)c2[nH]c3ccccc3c2C1 | 1.1
71 | CN1C(=O)c2[nH]c3ccccc3c2CN2CCC1(C)C2 (racemic) | 0.7

System: not listed separately
Test: Metabolic stability in CD1 mouse liver microsomes assessed as parent compound remaining incubated for 0.5 hrs in presence of beta-NADP by LC-MS/MS analysis
Format: ADME, Microsome
Settings: read-out: Stability

Row | Compound | remaining at 0.5 h
72 | O=C1c2[nH]c3ccccc3c2CN2CCC(C2)N1C1CC1 (racemic) | 92%
73 | CN1C(=O)c2[nH]c3ccccc3c2CN2CCC[C@@H]1C2 | 82%
74 | CN1C(=O)c2[nH]c3ccccc3c2CN2CC[C@H]1C2.O=S(=O)(O)O | 99%
75 | CC12CCCN(CC1)Cc1c([nH]c3ccccc13)C2=O (racemic) | 91%
76 | CCCN1C(=O)c2[nH]c3ccccc3c2CN2CCC1C2 (racemic) | 72%
77 | CCN1C(=O)c2[nH]c3ccccc3c2CN2CCC1C2 (racemic) | 91%
78 | C/C=C1/CN2CC[C@H]1C(=O)c1[nH]c3ccccc3c1C2.O=S(=O)(O)O | 34%
79 | CN1C(=O)c2[nH]c3ccccc3c2CN2CCC[C@H]1C2 | 74%
80 | CN1C(=O)c2[nH]c3ccccc3c2CN2CCC1C2.O=S(=O)(O)O (racemic) | > 100%
81 | O=C1c2[nH]c3ccccc3c2CN2CCC3(CCCN13)C2 (racemic) | 82%
82 | CCN1CCCC(=O)c2[nH]c3ccccc3c2C1 | 49%
83 | CN1C(=O)c2[nH]c3ccccc3c2CN2CC[C@@H]1C2.O=S(=O)(O)O | > 100%
84 | CN1CCCC(=O)c2[nH]c3ccccc3c2C1 | 53%
85 | CN1C(=O)c2[nH]c3ccccc3c2CN2CCC1(C)C2 (racemic) | 93%

System: not listed separately
Test: Clearance in ddY mouse at 1 mg/kg, iv measured after 3 mins by LC-MS/MS analysis
Format: ADME, organism-based
Settings: in vivo

Row | Compound | clearance
86 | CN1C(=O)c2[nH]c3ccccc3c2CN2CC[C@H]1C2.O=S(=O)(O)O | 24.9 mL/min/kg
87 | CN1C(=O)c2[nH]c3ccccc3c2CN2CC[C@@H]1C2.O=S(=O)(O)O | 12.9 mL/min/kg
